Article PMC10791743, “Selective CK1α degraders exert antiproliferative activity against a broad range of human cancer cell lines” (Nature Communications, 2024)
Several values for one entry are separate records, joined by “and”; a condition that tells them apart may be missing. Identical values can stand only once.

Assays:
[1] = Plasma protein binding assay (RED), human; type: in vitro ADME
Procedure: page 33: the need for further incubation. Following quenching, all plates were thoroughly mixed at 600 rpm for 10 minutes and centrifuged at 4000 rpm for 20 minutes. Supernatants were transferred to […] MS/MS analysis. Plasma stability was evaluated by determining the half-life through a least-squares fit of multiple time points based on first-order kinetics. Plasma protein binding assay: Test compound stock solutions were prepared at a concentration of 10 mM in DMSO. A Single-Use RED (Rapid Equilibrium Dialysis) device was acquired from Thermo Scientific (Cat. No: 99006, Rockford, IL). The sample preparation for plasma protein binding followed a modified version of Waters' method6. After thawing, plasma was centrifuged at 1000 rpm for 10 minutes to eliminate any particulates. Each compound was then prepared at a concentration of 10 µM in either human or mouse plasma. In the plasma protein binding assessment, 300 µL of spiked plasma solutions were introduced into the sample chamber (indicated by the red ring), while 550 µL of DPBS was added to the adjacent chamber. The plate was sealed and incubated at 37°C on an orbital shaker (100 rpm) for 4 hours. Post -incubation, 50 µL aliquots were withdrawn from each side of the insert and dispensed into a 96 -well storage plate. To create analytically identical sample matrices (matrix matching), an equivalent volume of blank plasma or DPBS was added to the necessary wells, followed by quenching w ith 3-fold (v:v) cold acetonitrile containing warfarin as the internal standard. Subsequently, the sealed plates were well -mixed at 600 rpm for 10 minutes and then centrifuged at 4000 rpm for 20 minutes. Supernatants were transferred to analytical […] Test compound concentrations were quantified in both the buffer and plasma chambers by determining peak areas relative to the internal standard. The percentage of the test compound bound to plasma was calculated using the following equation (4): %Free = (Concentration buffer chamber / concentration plasma chamber) x 100% and equation (5) %Bound = 100% - %Free.

PER117 cells = assay: CTG viability, PER117; type: cell-based, human; details: for IC50: PER117 cells, replicate values
Procedure: After establishing the potency and selectivity of our lead CK1α degraders, we investigated their effect on a panel of AML and ALL cell lines (Fig. 3a).
The primary screen was performed in 384-well format using the CellTiter Glo (CTG) luminescent cell viability assay (Promega) as previously described. 3630 compounds from the St. Jude proprietary molecular glue library were screened against 9 human cancer cell lines (HD-MB03, MB004, MB002, MHH-CALL4, MOLM-13, TF-1, HEL, OCI-AML3, AML193). Each cell line was cultured in the complete medium recommended by the vendor and seeded in Corning 8804 BC white 384-well assay plates at densities of 1000, 1000, 1500, 7500, 1250, 156, 625, 1250, 1250 cells per well for HD-MB03, MB004, MB002, MHH-CALL4, MOLM-13, TF-1, HEL, OCI-AML, AML193, respectively. After overnight incubation at 37 °C in a humidified 5% CO2 incubator, cells were treated with compounds in dose–response format using a Pintool on a Biomek FX^P Laboratory Automation Workstation (Beckman Coulter). After 72 h of incubation, cell proliferation was assessed using a CellTiter-Glo (CTG) luminescent cell viability assay (Promega) according to the manufacturer’s instructions. Luminescence signal was measured using an EnVision plate reader (PerkinElmer).
HD-MB03 cell line was obtained from Drs. Milde, Witt and Deubzer[52]. HD-MB03 and MB004 cells were grown in a neurobasal medium supplemented with glutamine, streptomycin, penicillin, B27, EGF, bFGF, and heparin as previously described. MB002 and MB004 cells were obtained from Dr Yoon-Jae Cho[54]. MB002 cells were cultured in 80% neurobasal medium supplemented with glutamine, streptomycin, penicillin, B27, and 20% conditioned media from previous passages; EGF, bFGF, and heparin were also added to the medium. MHH-CALL4, NALM-16, MHH-CALL-2 cells were obtained from the German Collection of Microorganisms and Cell Cultures GmbH (DSMZ, Germany). PER-117 cells were obtained from Telethon Kids Institute (Perth, Australia). The cells were cultured in RPMI1640 medium supplemented with 10% FBS (Hyclone), Penicillin/Streptomycin (100 units/mL), and Glutamine (100 µM) except for MHH-CALL-2 cells where 20% FBS were used. MOLM-13 cells were obtained from DSMZ (ACC 554) and cultured in RPMI-1640 media (Gibco) supplemented with 20% FBS (R&D Systems) and 100 U/ml penicillin-streptomycin (Gibco). HNT-34 cells were purchased from DSMZ (ACC 600) and cultured in RPMI-1640 media supplemented with 20% FBS and 100 U/ml penicillin-streptomycin. Kasumi-3 cells were purchased from ATCC (CRL-2725) and cultured in RPMI-1640 media supplemented with 20% FBS and 100 U/ml penicillin-streptomycin. UCSD-AML1 cells were purchased from DSMZ (ACC 691) and cultured in RPMI-1640 media supplemented with 20% FBS, 100 U/ml penicillin–streptomycin, and 10 ng/ml human GM-CSF (PeproTech). […] OCI-AML3 cells were purchased from DSMZ (ACC 690) and cultured in Alpha-MEM media (Invitrogen) supplemented with 20% FBS and 100 U/ml penicillin–streptomycin. HEL cells were obtained from Dr. Charles Mullighan and cultured in RPMI-1640 media supplemented with 10% FBS and 100 U/ml penicillin-streptomycin. AML193 cells were purchased from DSMZ (ACC 549) and cultured in IMDM supplemented with 5% FBS, 100 U/ml penicillin–streptomycin, Insulin–Transferrin–Selenium (ITS-G, Gibco), and 5 ng/ml human GM-CSF. Cell identity was confirmed by STR profiling using PowerPlex® Fusion System (Promega).

[2] = human plasma, single replicates

Row | SMILES | fraction unbound at 4 h, 10 µM ([1]; human, plasma) | Activity against PER117 cells (PER117 cells; CTG) | IC50 (PER117 cells; Homo sapiens) [nM] | IC50 (PER117 cells) | AVG %Bound ([1]; human plasma, average of 3 replicates) [%] | %Bound [1, 2] | %Free [1, 2]
1 | O=C1CCC(N2Cc3cc(Nc4noc5ccccc45)ccc3C2=O)C(=O)N1 (stereo not drawn) [SJ3149] | 0.023 | sub-nanomolar activity | 0.8 | 1.1 nM |  |  | 
2 | Cc1cccc(C(=O)Nc2ccc3c(c2)CN(C2CCC(=O)NC2=O)C3=O)c1 (stereo not drawn) [SJ0040] |  |  | 5 | 4.7 nM and 5.3 nM |  |  | 
3 | O=C1CCC(N2Cc3cc(Nc4noc5ccccc45)ccc3C2=O)C(=O)N1 (stereo not drawn) [SJ001043149-1] |  |  |  |  | 97.7 | 97.5829% and 97.7158% and 97.77% | 2.417% and 2.284% and 2.23%
